Values quoted from earlier work, collected in US20230076527A1, “TREATMENT OF PAROXYSMAL NOCTURNAL HEMOGLOBINURIA” (Apellis Pharmaceuticals, Inc., priority 2020, published 2023).

System: complement activation
Settings: relative to compstatin amidated at the C-terminus; published data; cited from earlier work

Row | Substance | Activity over compstatin [xmore]
1 | H-GICV(6fW)QD(6fW)GAHRCTN-COOH (6-fluoro-Trp) [+G/V4(6fW)/W7(6fW)H9A+N -OH] | 126
2 | Ac-ICVWQDWGAHRCdT-COOH [AC-V4W/H9A/T13dT -OH] | 55
3 | Ac-ICVWQD(5fW)GAHRCT-CONH2 [Ac-V4W/W7(5fW)/H9A] | 121
4 | Ac-1CV(2-Igl)QDWGAHRCT-CONH2 [Ac-V42Igl/H9A] | 39
5 | Ac-ICV(2-Igl)QDWGAHRCT-COOH (N-acetyl, 2-Igl) [Ac-V42Igl/H9A -OH] | 37
6 | Ac-ICV(2-Nal)QDWGAHRCT-COOH (N-acetyl, 2-Nal) [Ac V4(2-Nal)/H9A -OH] | 38
7 | Ac-ICV(2-Nal)QDWGAHRCT-CONH2 (N-acetyl, C-amide, 2-Nal) [Ac-V4(2-Nal)/H9A] | 99
8 | Ac-ICV(Bpa)QDWGAHRCT-CONH2 (N-acetyl, C-amide, Bpa) [Ac-V4(Bpa)/H9A] | 86
9 | Ac-ICVVQDWGHHRCT-CONH2 [Ac-compstatin] | 3
10 | Ac-ICVYQDWGAHRCT-CONH2 [AC-V4Y/H9A] | 14
11 | Ac-ICV(Bpa)QDWGAHRCT-COOH (N-acetyl, Bpa) [Ac-V4(Bpa)/H9A -OH] | 49
12 | Ac-ICVWQDWGAHRCT-CONH2 (Ac-ICVWQDWGAHRCT-NH2; cysteine pairing not given here) [Ac-V4W/H9A] | 45
13 | Ac-ICVDhtQDWGAHRCT-COOH [Ac-V4Dht/H9A -OH] | 5
14 | Ac-ICV(1-Nal)QDWGAHRCT-COOH (N-acetyl, 1-Nal) [Ac V4(1-Nal)/H9A -OH] | 30
